Assay results: patent US20030228402A1, “Compositions and methods for preservation of food” (priority 2002, published 2003)
Like-named read-outs stand apart in the source and are kept apart here.

What was measured:
[1] = Solution and suspension levels of terpenes in water
From the text: The terpene and water were blended in a household blender for 30 seconds.
Examples of these levels are as follows.

E. coli strain AW574 = test: E. coli growth (O.D.) with single or combined terpenes; format: cell-based; conditions: single terpene 2 μMol; 24 hours
Procedure: E. coli strain AW574 was grown in tryptone broth to an exponential growth phase (O.D. between 0.4 and 1.0 at 590 nm). One tenth of this growth was inoculated to 10 ml of tryptone broth followed by the addition of individual terpenes or as indicated on Table 8; then incubated for 24 hours at 35-37° C., and the O.D. determined in each tube. The concentration of terpenes was 1 or 2 μMol. Each treatment was repeated in triplicate. The results are expressed as percentage bacterial growth as compared to the control treatment.
E. coli strain AW574 was grown in tryptone broth to an exponential growth phase (O.D. between 0.4 and 1.0 at 590 nm).
One tenth of this growth was inoculated to 10 ml of tryptone broth followed by the addition of individual terpenes or as indicated on Table 18; then incubated for 24 hours at 35-37° C. and the O.D. determined in each tube.
The concentration of terpenes was 1 or 2 μMol. Each treatment was repeated in triplicate.
The results are expressed as percentage bacterial growth as compared to the control treatment.

[2] = tested on: E. coli strains AW574 or AW405; test: Lysis of E. coli by terpenes (galactosidase activity, ONPG); format: cell-based
From the text: Lysis of the cell membrane was monitored by the determination of galactosidase activity. B-galactosidase is a well-characterized cytosolic enzyme in bacteria. This enzyme is inducible in the presence of isopropyl-1-thiogalactosidase (IPTG) and assayed calorimetrically with substrate o-nitro-phenyl-B-D-galactoside (ONPG). ONPG is cleaved to release o-nitrophenol which has a peak absorbance at 420 nm.
Since intact E. coli is impermeable to both ONPG and the enzyme, the cells have to be lysed prior to enzymatic assay. Therefore, the ability of terpenes to lyse E. coli can be measured with this enzymatic assay and compared to known lysing agents.
The procedure used was as follows: E. coli strains AW574 or AW405 were cultured overnight in 10 ml tryptone broth with […] at 35° C. Cells were allowed to grow after an absorbance equal to 0.9 was reached.
Cells were harvested, washed with phosphate buffer and resuspended to an absorbance equal to 0.5.
0.1 ml of the bacteria culture was added to 0.9 ml of buffer, warmed to 30° C., and then 80 μl of terpenes (85% terpenes and 15% polysorbate-80), 80 μl water (background), or 40 μl chloroform plus 40 μl 1% SDS in water (positive control) were added.
After the addition of the lysing agents the tubes were mixed for 10 seconds, and 0.2 ml of ONPG (4 mg/ml water) was added, then incubated for 5 minutes. The 5 enzyme activity was stopped with 0.5 ml of 1 M sodium carbonate. After being centrifuged for 3 minutes at 1,500×g, supernatant was transferred to cuvettes and read at 420 nm.
The relative degree of lysis caused by terpenes was calculated as follows: 100× (O.D. terpenes—O.D. water)/(O.D. chloroform—O.D. water).

erythrocytes = format: cell-based; conditions: 20 min
Procedure: These mixtures were incubated for 20 minutes.

[3] = Break down of terpenes in the presence of oxygen / potency of solution; format: physicochemical; conditions: 500 ppm solution
From the text: Terpenes will break down in the presence of oxygen. Citral, for example, is an aldehyde and will decay (oxygenate) over a period of days.

E. coli = conditions: cited from earlier work
Mycoplasma pneumoniae = test: Killing of Mycoplasma pneumoniae, color change of SP4 medium; format: cell-based; conditions: for killing effect (color change of first tube): three days after the 10-fold dilution
Procedure: This mixture was then used to make concentrations of 2500 ppm in sterile phosphate buffer saline (PBS) by blending the mixture in PBS for 40 seconds. […] PBS containing 25 ppm Tween® 80 or PBS alone was used to treat cells suspension as controls. […] After 40 hours of treatment, 10-fold serial dilution was performed to 10 (−10) by first taking 0.1 mL of the treated culture suspension was added into 0.9 mL of fresh SP4 (Whitcomb (1983); SP4 media is commercially available (Remel, Lenexa, Kans., USA)). All the tubes were then incubated at 37° C., and a color change of the medium was used for the indication of the cells that either were killed or survived from the treatment. Color change was from red to yellow because Mycoplasma pneumoniae produces acid during its growth. All the treatments were performed in duplicate.

[4] = 62.5, 125 and 250 ppm, 40 hours treatment

Q: For `C=C(C)C1CC=C(C)C(=O)C1` (stereo not shown) [Carvone], which “Level (maximum level of terpene solubilized, solution level)” value (shortened to “Level”) ([1]; true solution in water without surfactant, high shear mixing) is on record?
A: 500 ppm

Q: And the “% growth (bacterial growth as compared to the control treatment)” value (E. coli strain AW574)?
A: 63.00%

Q: What about the Relative lysis % ([2]; 404 μM) of the same compound?
A: 3.2%

Q: What about the Relative lysis % ([2]; 4,040 μM) of the same compound?
A: 22%

Q: What about the Relative lysis % ([2]; 40,400 μM) of the same compound?
A: 54%

Q: For `CC(C)=CCCC(C)=CC=O` [Citral, 3,7-dimethyl-2,6-octadien-1-al], which “concentration that will lyse human erythrocytes” value (erythrocytes) is on record?
A: approximately 1000 ppm

Q: What about the “time in which the solution will lose half its potency” value [3] of the same compound?
A: 2-3 weeks

Q: What about the “citral in growth media with bactericidal effect” value (E. coli) of the same compound?
A: 0.08%

Q: Which “Level” value [1] does the source give for `CC(C)=CCC/C(C)=C/CO` [Geraniol] here?
A: 500 ppm

Q: What about the “% growth (bacterial growth as compared to the control treatment)” value (E. coli strain AW574) of the same compound?
A: 54.00%

Q: What about the Relative lysis % ([2]; 3.63 μM) of the same compound?
A: 2.4%

Q: And the Relative lysis % ([2]; 36.3 μM)?
A: 4%

Q: What about the Relative lysis % ([2]; 363 μM) of the same compound?
A: 34%

Q: And the Relative lysis % ([2]; 3,630 μM)?
A: 98%

Q: And the Relative lysis % ([2]; 36,300 μM)?
A: 96%

Q: Which results are given for `CC(=O)/C=C/C1=C(C)CCCC1(C)C` [b-ionone]?
A: Level (maximum level of terpene solubilized, solution level) [1]: 500 ppm; % growth (bacterial growth as compared to the control treatment) (E. coli strain AW574): 84.00%; killing effect (color change of first tube) (Mycoplasma pneumoniae; [4]): killing effect; tubes of the 10-fold dilution series that changed color (Mycoplasma pneumoniae; 62.5 ppm, 6 days after the 10-fold dilution): only the first tube; killing of all cells (Mycoplasma pneumoniae; 125 and 250 ppm, 40 hours treatment, 6 days after the 10-fold dilution): may have completely killed all cells; Relative lysis % ([2]; 0.0308 μM): 1.3%; Relative lysis % ([2]; 0.308 μM): 4.78%; Relative lysis % ([2]; 3.08 μM): 23%; Relative lysis % ([2]; 30.8 μM): 44%; Relative lysis % ([2]; 308 μM): 52%

Q: What does the source list for L-carvone?
A: killing effect (color change of first tube) (Mycoplasma pneumoniae; [4]): no killing effects; tubes of the 10-fold dilution series that changed color (Mycoplasma pneumoniae; 62.5, 125 and 250 ppm, 6 days after the 10-fold dilution): second and third tube

Q: Which “Level” value [1] does the source give for Terpeniol here?
A: 500 ppm
